Measurements taken from US6737383B1, “Herbicidal oxadiazolidines” (priority 1999, dated 2004).

Assays:
[1] = system: bedstraw; assay: Test B pre/postemergence bedstraw; assay type: in vivo, Galium aparine
Method in brief: (§1)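 Test chemicals in a non-phytotoxic solvent mixture with surfactant were sprayed preemergence onto planted seeds and postemergence onto plants 2 to 18 cm tall (1- to 4-leaf stage). After twelve to sixteen days in a greenhouse, injury was visually rated against untreated controls from 0 (no effect) to 10 (complete control).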

[2] = system: wild oat; assay: Test B pre/postemergence wild oat; assay type: in vivo, Avena fatua
Method in brief: as §1

[3] = system: surinam grass; assay: Test B pre/postemergence surinam grass; assay type: in vivo, Brachiaria decumbens
Method in brief: as §1

[4] = system: bamyardgrass; assay: Test B flood test barnyardgrass; assay type: in vivo, Echinochloa crus-galli
Method in brief: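 Each value is a visual injury score relative to controls, with 10 meaning complete control and 0 no effect. Evaluation took place twelve to sixteen days after the 2-leaf-stage plants were treated and kept in the greenhouse.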

[5] = Postemergence, Rate 62 g/ha, scale 0 to 10, 0 is no effect, 10 is complete control
[6] = Postemergence, Rate 250 g/ha, scale 0 to 10, 0 no effect, 10 complete control
[7] = Preemergence, Rate 62 g/ha, scale 0 to 10, 0 is no effect, 10 is complete control
[8] = Preemergence, Rate 125 g/ha, scale 0 to 10 (0 no effect, 10 complete control)
[9] = Preemergence, Rate 250 g/ha, scale of 0 to 10 where 0 is no effect and 10 is complete control
[10] = Preemergence, Rate 500 g/ha, scale 0 (no effect) to 10 (complete control)
[11] = Rate 125 g/ha, Postemergence, scale 0 to 10, 0 no effect, 10 complete control
[12] = Rate 500 g/ha, Postemergence, 0 to 10 scale (0 no effect, 10 complete control)
[13] = Rate 125 g/ha, Postemergence section (flood test species), scale 0 to 10, 0 no effect, 10 complete control
[14] = Rate 500 g/ha, Postemergence section of Table B, 0 to 10 scale (0 no effect, 10 complete control)
[15] = flood test, listed under Postemergence, Rate 250 g/ha, scale 0 to 10, 0 no effect, 10 complete control
[16] = Preemergence, Rate 31 g/ha, visual rating, scale 0 to 10 (0 no effect, 10 complete control)
[17] = Rate 31 g/ha, Postemergence, scale 0 to 10

Row | Compound | Bedstraw plant response rating [1, 5] | Bedstraw plant response rating [1, 6] | Plant response rating, Bedstraw [1, 7] | Plant response rating, Bedstraw [1, 8] | Plant response rating, Bedstraw [1, 9] | Bedstraw plant response rating [1, 11] | Wild oats plant response rating [2, 5] | Wild oats plant response rating [2, 6] | Plant response rating, Wild oats [2, 8] | Plant response rating, Wild oats [2, 9] | Wild oats plant response rating [2, 11] | B. signalgrass plant response rating [3, 5] | B. signalgrass plant response rating [3, 6] | Plant response rating, B. signalgrass [3, 7] | Plant response rating, B. signalgrass [3, 8] | Plant response rating, B. signalgrass [3, 9] | B. signalgrass plant response rating [3, 11] | Barnyardgrass plant response rating [4, 5] | Barnyardgrass plant response rating [4, 13] | Barnyardgrass plant response rating [4, 15] | other results
1 | CC(C)N(C(=O)n1oc(=O)n(-c2c(Cl)cccc2Cl)c1=O)c1ccc(F)cc1 [Compound 19] | 2 | 7 | 0 | 0 | 0 | 6 | 0 | 0 | 0 | 0 | 0 | 0 | 0 | 0 | 2 | 2 | 0 | 0 | 0 | 0 | Bedstraw plant response rating [1, 10]: 0; Bedstraw plant response rating [1, 12]: 8; Wild oats plant response rating [2, 10]: 0; B. signalgrass plant response rating [3, 10]: 2; B. signalgrass plant response rating [3, 12]: 0; Barnyardgrass plant response rating [4, 14]: 0
2 | CCN(C(=O)n1oc(=O)n(-c2ccccc2OC)c1=O)C1CCCCC1 [Compound 29] | 0 | 0 | 0 | 0 | 0 | 0 | 0 | 0 | 0 | 0 | 0 | 0 | 0 | 0 | 0 | 0 | 0 | 0 | 0 | 0 | Bedstraw plant response rating [1, 16]: 0; Bedstraw plant response rating [1, 17]: 0; Wild oats plant response rating [2, 16]: 0; B. signalgrass plant response rating [3, 16]: 0; B. signalgrass plant response rating [3, 17]: 0; Barnyardgrass plant response rating [4, 14]: 0
3 | COc1ccccc1-n1c(=O)on(C(=O)N(c2ccc(F)cc2F)C(C)C)c1=O [Compound 31] | 0 | 0 | 0 | 0 | 0 | 0 | 0 | 0 | 2 | 4 | 0 | 0 | 0 | 0 | 0 | 6 | 0 | 0 | 0 | 0 | Bedstraw plant response rating [1, 16]: 0; Bedstraw plant response rating [1, 17]: 0; Wild oats plant response rating [2, 16]: 0; B. signalgrass plant response rating [3, 16]: 0; B. signalgrass plant response rating [3, 17]: 0; Barnyardgrass plant response rating [4, 14]: 0
4 | COc1ccc(-n2c(=O)on(C(=O)N(c3ccc(F)cc3F)C(C)C)c2=O)c(OC)c1 [Compound 32] | 0 | 0 | 0 | 0 | 0 | 0 | 0 | 0 | 0 | 2 | 0 | 0 | 0 | 0 | 0 | 2 | 0 | 0 | 0 | 8 | Bedstraw plant response rating [1, 16]: 0; Bedstraw plant response rating [1, 17]: 0; Wild oats plant response rating [2, 16]: 0; B. signalgrass plant response rating [3, 16]: 0; B. signalgrass plant response rating [3, 17]: 0; Barnyardgrass plant response rating [4, 14]: 9
5 | Cc1ccccc1-n1c(=O)on(C(=O)N(c2ccc(F)c(F)c2)C(C)C)c1=O [Compound 48] | 0 | 0 | 0 | 0 | 0 | 0 | 0 | 0 | 0 | 2 | 0 | 0 | 0 | 0 | 0 | 0 | 0 | 0 | 0 | 0 | Bedstraw plant response rating [1, 10]: 0; Wild oats plant response rating [2, 10]: 2; Wild oats plant response rating ([2]; Rate 500 g/ha, Postemergence, scale 0 to 10, 0 no effect, 10 complete control): 0; B. signalgrass plant response rating [3, 10]: 0; B. signalgrass plant response rating ([3]; Rate 500 g/ha, Postemergence, scale of 0 to 10 where 0 is no effect and 10 is complete control): 0; Barnyardgrass plant response rating ([4]; Rate 500 g/ha, listed under Postemergence (flood test species), scale 0 to 10, 0 no effect, 10 complete control): 0
